Reference: ChEMBL document CHEMBL1201862, “PubChem BioAssay data set” (2004)
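Test compounds were applied to cells in 96-well plates for 48 hours at 5 doses. Here, GI50 denotes the concentration required for 50% inhibition of growth.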 The source made the active and inactive calls. No stated cut-off is given here; in the data, active = GI50 up to about 1.1 µM and inactive = higher.

Experiments:
Assay in all cases: inhibition of tumour cell growth, NCI panel, 48 h
[1] = system: CAKI-1
[2] = system: COLO 205
[3] = system: EKVX
[4] = system: HL-60
[5] = system: HOP-92
[6] = system: K562
[7] = system: KM12
[8] = system: MOLT-4
[9] = system: NCI-H226
[10] = system: NCI-H522
[11] = system: SK-MEL-5
[12] = system: SK-OV-3
[13] = system: TK-10
[14] = system: UACC-257
[15] = system: HCC 2998
[16] = system: HCT-15
[17] = system: RPMI-8226

Row | SMILES | GI50 [1] | GI50 [2] | GI50 [3] | GI50 [4] | GI50 [5] | GI50 [6] | GI50 [7] | GI50 [8] | GI50 [9] | GI50 [10] | GI50 [11] | GI50 [12] | GI50 [13] | GI50 [14] | GI50 [15] | GI50 [16] [µM] | GI50 [17]
1 | O=C(N/N=C/c1cc(Br)ccc1O)N/N=C/c1cc(Br)ccc1O | 2.79 µM (inactive) | 4.45 µM (inactive) | 4.93 µM (inactive) | 1.25 µM (inactive) | 0.661 µM (active) | 0.377 µM (active) | 5.35 µM (inactive) | 1.97 µM (inactive) | 2.02 µM (inactive) | 1.99 µM (inactive) | 2.49 µM (inactive) | 69 µM (inactive) | 54.6 µM (inactive) | 4.3 µM (inactive) |  |  | 
2 | CN1OC(CO)CC12C1CC3CC(C1)CC2C3 (configuration not stated) | > 100 µM (inactive) | > 100 µM (inactive) |  | > 100 µM (inactive) | > 100 µM (inactive) | > 100 µM (inactive) | > 100 µM (inactive) | > 100 µM (inactive) |  | > 100 µM (inactive) | > 100 µM (inactive) | > 100 µM (inactive) | > 100 µM (inactive) |  | > 100 µM (inactive) | > 100 | > 100 µM (inactive)
3 | CSc1ccc(Cc2cc(C(C)(C)C)cc(C(C)(C)C)c2O)cc1 | 16.7 µM (inactive) |  | 18.2 µM (inactive) | 8.67 µM (inactive) |  | 12 µM (inactive) | 11 µM (inactive) | 8.07 µM (inactive) |  |  | 15.6 µM (inactive) | 27 µM (inactive) | 12.9 µM (inactive) | 14.7 µM (inactive) | 18.5 µM (inactive) | 14 | 4.45 µM (inactive)
4 | C=CCN(N=O)C(=O)N(CCCCC(NC(C)=O)C(=O)NCc1ccccc1)Cc1ccccc1 (configuration not stated) | 28.6 µM (inactive) | 23.8 µM (inactive) | 38.1 µM (inactive) | 19.8 µM (inactive) | 13.1 µM (inactive) | 26.9 µM (inactive) | 31.6 µM (inactive) | 13.8 µM (inactive) | 25.4 µM (inactive) | 15.1 µM (inactive) | 15.5 µM (inactive) | > 100 µM (inactive) | 35.1 µM (inactive) | 36.1 µM (inactive) |  | 39.9 | 16.1 µM (inactive)
5 | O=C1NC(=O)C2C(=O)NC(=O)C1C2(c1ccccc1)c1cc[nH]c1 (configuration not stated) | > 100 µM (inactive) | > 100 µM (inactive) | > 100 µM (inactive) | > 100 µM (inactive) | > 100 µM (inactive) | > 100 µM (inactive) | > 100 µM (inactive) | > 100 µM (inactive) | > 100 µM (inactive) | > 100 µM (inactive) | > 100 µM (inactive) | > 100 µM (inactive) | > 100 µM (inactive) | > 100 µM (inactive) | > 100 µM (inactive) | > 100 | > 100 µM (inactive)
6 | Cc1ccc(S(=O)(=O)N/N=C(\CCN2CCCC2)CC(c2ccccc2)c2c(O)c3ccccc3oc2=O)cc1 (configuration not stated) | > 100 µM (inactive) |  | > 100 µM (inactive) | > 100 µM (inactive) | 72.3 µM (inactive) | 88.9 µM (inactive) | > 100 µM (inactive) |  | > 100 µM (inactive) | 99.5 µM (inactive) | > 100 µM (inactive) | > 100 µM (inactive) | > 100 µM (inactive) | > 100 µM (inactive) |  | > 100 | > 100 µM (inactive)
7 | CC(C)(C)C1=Cc2cc3cc(C(C)(C)C)[nH]c(=O)c3cc2S(=O)(=O)N1 | 12.2 µM (inactive) | 21.5 µM (inactive) | 17.3 µM (inactive) | 21.2 µM (inactive) | 16.7 µM (inactive) | 45.4 µM (inactive) | 30.6 µM (inactive) | 28.1 µM (inactive) | 19.9 µM (inactive) | 15.3 µM (inactive) |  | 31.2 µM (inactive) | 29.6 µM (inactive) | 25.1 µM (inactive) |  |  | 30.3 µM (inactive)
8 | N#Cc1c(-c2ccccc2)cc(-c2ccc(N)cc2)[nH]c1=O |  | > 100 µM (inactive) | > 100 µM (inactive) | > 100 µM (inactive) | > 100 µM (inactive) | > 100 µM (inactive) | > 100 µM (inactive) | > 100 µM (inactive) | > 100 µM (inactive) | > 100 µM (inactive) | > 100 µM (inactive) | > 100 µM (inactive) | > 100 µM (inactive) | > 100 µM (inactive) | > 100 µM (inactive) | > 100 | > 100 µM (inactive)
9 | CC1CC(c2ccc(Cl)cc2)=Nc2ccccc2S1 (configuration not stated) |  | > 100 µM (inactive) | > 100 µM (inactive) | > 100 µM (inactive) |  | > 100 µM (inactive) | > 100 µM (inactive) | > 100 µM (inactive) | > 100 µM (inactive) | > 100 µM (inactive) |  | > 100 µM (inactive) | > 100 µM (inactive) | > 100 µM (inactive) | > 100 µM (inactive) | > 100 | > 100 µM (inactive)
10 | NC(=S)N/N=C(\C(=O)Nc1ccc(Cl)c(Cl)c1)C1=NN(c2ccccc2)C(c2cccc([N+](=O)[O-])c2)CC1=O (configuration not stated) | 79.4 µM (inactive) | 19 µM (inactive) | > 100 µM (inactive) | 33.7 µM (inactive) |  | 17.9 µM (inactive) | 85.9 µM (inactive) | 17.3 µM (inactive) | 25.9 µM (inactive) |  | > 100 µM (inactive) | 30.5 µM (inactive) | > 100 µM (inactive) | 30.2 µM (inactive) | 40.6 µM (inactive) | 30.8 | 3.37 µM (inactive)
11 | CCN1CCN(c2ccc(Nc3ccnc4ccc5nn(C)nc5c34)cc2)CC1 | 12.8 µM (inactive) | 5.08 µM (inactive) |  | 94.8 µM (inactive) | 11.9 µM (inactive) | 5.12 µM (inactive) | 10.7 µM (inactive) | 4.5 µM (inactive) | 12.3 µM (inactive) | 11.1 µM (inactive) | 15.2 µM (inactive) | 13.8 µM (inactive) | 17.5 µM (inactive) | 16.6 µM (inactive) | 13.2 µM (inactive) | 13.8 | 7.08 µM (inactive)
12 | Cc1cc2c(=O)cc(-c3ccncc3)oc2c(C(N)=O)c1C |  | > 100 µM (inactive) | > 100 µM (inactive) | > 100 µM (inactive) | > 100 µM (inactive) |  |  | > 100 µM (inactive) | > 100 µM (inactive) |  |  | > 100 µM (inactive) | > 100 µM (inactive) | > 100 µM (inactive) | > 100 µM (inactive) | > 100 | > 100 µM (inactive)
13 | O=C1CC[C@H]2CNC(=O)C[C@H]2C1 | > 100 µM (inactive) | > 100 µM (inactive) | > 100 µM (inactive) | > 100 µM (inactive) | > 100 µM (inactive) | > 100 µM (inactive) | > 100 µM (inactive) | > 100 µM (inactive) |  | > 100 µM (inactive) | > 100 µM (inactive) | > 100 µM (inactive) | > 100 µM (inactive) | > 100 µM (inactive) | > 100 µM (inactive) | > 100 | > 100 µM (inactive)
14 | O=C(O)CCc1nn2c(nc1=O)sc1ccc3ccccc3c12 | > 100 µM (inactive) | > 100 µM (inactive) | > 100 µM (inactive) | > 100 µM (inactive) | > 100 µM (inactive) | > 100 µM (inactive) |  | > 100 µM (inactive) | > 100 µM (inactive) |  | > 100 µM (inactive) | > 100 µM (inactive) | > 100 µM (inactive) | > 100 µM (inactive) | > 100 µM (inactive) | > 100 | > 100 µM (inactive)
15 | C/C(=N\NC(=S)NC(CCC(=O)O)C(=O)O)c1cnccn1 (configuration not stated) |  | > 100 µM (inactive) | > 100 µM (inactive) | > 100 µM (inactive) | > 100 µM (inactive) | > 100 µM (inactive) | > 100 µM (inactive) | > 100 µM (inactive) | > 100 µM (inactive) | > 100 µM (inactive) | > 100 µM (inactive) | > 100 µM (inactive) | > 100 µM (inactive) | > 100 µM (inactive) | > 100 µM (inactive) | > 100 | > 100 µM (inactive)
16 | CCOC(=O)NC(=O)c1cn(C2OC(COC(=O)CCCCCCCCC(=O)OCC3OC(n4cc(C(=O)NC(=O)OCC)c(=O)[nH]c4=O)C(O)C3O)C(O)C2O)c(=O)[nH]c1=O (configuration not stated) | > 100 µM (inactive) |  | > 100 µM (inactive) | > 100 µM (inactive) |  | > 100 µM (inactive) | > 100 µM (inactive) | > 100 µM (inactive) | > 100 µM (inactive) |  | > 100 µM (inactive) |  | > 100 µM (inactive) | > 100 µM (inactive) | > 100 µM (inactive) | > 100 | > 100 µM (inactive)
17 | COc1ccc(/C=N\N2C(=O)Cc3ccccc32)cc1 | > 100 µM (inactive) | > 100 µM (inactive) | > 100 µM (inactive) | > 100 µM (inactive) | 22.3 µM (inactive) | 95.5 µM (inactive) | > 100 µM (inactive) | 41.4 µM (inactive) | > 100 µM (inactive) |  | > 100 µM (inactive) | > 100 µM (inactive) | 59.6 µM (inactive) | > 100 µM (inactive) | 25.4 µM (inactive) | > 100 | > 100 µM (inactive)
18 | Cc1cccc2c(=O)cc(-c3ccccc3)[nH]c12 |  | 4.36 µM (inactive) | 46.2 µM (inactive) | 3.25 µM (inactive) |  | 2 µM (inactive) |  | 4.54 µM (inactive) | 20.2 µM (inactive) |  | 2.36 µM (inactive) |  | > 100 µM (inactive) | 5.22 µM (inactive) | 4.39 µM (inactive) | 4.23 | 5.4 µM (inactive)
19 | COc1ccc2c3c([nH]c2c1[N+](=O)[O-])C(C)=NCC3 | 47.1 µM (inactive) | 15.2 µM (inactive) | > 100 µM (inactive) | > 100 µM (inactive) |  | 62.7 µM (inactive) | 89.3 µM (inactive) | 30.8 µM (inactive) | 51.8 µM (inactive) | > 100 µM (inactive) |  |  | > 100 µM (inactive) | > 100 µM (inactive) | > 100 µM (inactive) | > 100 | 39.7 µM (inactive)
